Common to all, as to format: biochemical
One test deals with T1, JAK1 (Homo sapiens, UniProt P23458).
T1 construct: made in house; host or cells: SF9 insect cells (baculovirus)
Briefly: JAK1 inhibition (Table 4). The settings on record: read-out: JAK1 Ki.

The next test has as its target T2, JAK2 (Homo sapiens, UniProt O60674).
T2 construct: made in house; host or cells: SF9 insect cells (baculovirus)
Briefly: JAK2 inhibition (Table 4). As to conditions: read-out: JAK2 Ki.

For another test, the target named is T3, JAK3 (Homo sapiens, UniProt P52333).
T3 construct: made in house; host or cells: SF9 insect cells (baculovirus)
T3 sequence (P52333 783-1124): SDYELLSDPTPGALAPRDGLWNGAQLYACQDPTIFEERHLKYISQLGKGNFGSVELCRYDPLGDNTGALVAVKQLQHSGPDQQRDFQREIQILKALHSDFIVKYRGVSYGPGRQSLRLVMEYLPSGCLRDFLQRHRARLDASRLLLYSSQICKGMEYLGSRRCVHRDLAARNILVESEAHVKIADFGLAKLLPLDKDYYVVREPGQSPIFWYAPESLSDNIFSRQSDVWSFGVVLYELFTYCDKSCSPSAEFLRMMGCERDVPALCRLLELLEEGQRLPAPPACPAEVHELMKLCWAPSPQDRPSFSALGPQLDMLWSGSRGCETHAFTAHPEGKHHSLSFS
Briefly: JAK3 inhibition (Table 4). As to conditions: read-out: JAK3 Ki.

A further test deals with T4, TYK2 (Homo sapiens, UniProt P29597).
T4 construct: made in house; host or cells: SF9 insect cells (baculovirus)
T4 sequence (P29597 873-1187): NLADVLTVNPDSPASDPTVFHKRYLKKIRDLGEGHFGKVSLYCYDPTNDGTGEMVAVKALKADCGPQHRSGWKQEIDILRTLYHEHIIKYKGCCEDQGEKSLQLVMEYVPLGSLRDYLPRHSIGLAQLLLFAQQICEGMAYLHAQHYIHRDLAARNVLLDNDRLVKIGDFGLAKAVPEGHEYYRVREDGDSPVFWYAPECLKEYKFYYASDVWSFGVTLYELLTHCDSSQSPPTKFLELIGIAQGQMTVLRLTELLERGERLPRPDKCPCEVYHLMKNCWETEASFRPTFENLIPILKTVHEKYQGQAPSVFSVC
Briefly: TYK2 inhibition (Table 4).

T1 sequence (P23458 852-1154): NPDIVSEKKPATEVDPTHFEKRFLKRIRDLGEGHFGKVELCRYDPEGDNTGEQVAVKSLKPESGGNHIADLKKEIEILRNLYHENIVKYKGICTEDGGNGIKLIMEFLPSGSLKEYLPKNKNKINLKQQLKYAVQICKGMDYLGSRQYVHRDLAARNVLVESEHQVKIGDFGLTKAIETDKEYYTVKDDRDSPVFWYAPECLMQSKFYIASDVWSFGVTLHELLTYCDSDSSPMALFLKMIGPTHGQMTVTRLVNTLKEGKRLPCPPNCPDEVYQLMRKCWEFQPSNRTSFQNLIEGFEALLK
T2 sequence (O60674 812-1132): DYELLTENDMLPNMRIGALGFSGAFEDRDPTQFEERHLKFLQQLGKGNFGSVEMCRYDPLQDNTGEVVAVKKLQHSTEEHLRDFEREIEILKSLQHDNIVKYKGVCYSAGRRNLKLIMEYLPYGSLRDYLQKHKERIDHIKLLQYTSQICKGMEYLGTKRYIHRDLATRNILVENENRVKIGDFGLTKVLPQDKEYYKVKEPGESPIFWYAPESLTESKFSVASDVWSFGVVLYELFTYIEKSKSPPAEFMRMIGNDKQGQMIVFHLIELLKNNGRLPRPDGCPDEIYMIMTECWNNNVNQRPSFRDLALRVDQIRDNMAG

As for `C[C@@H](O)c1nc2cnc3[nH]ccc3c2n1C1CCC(CC#N)CC1` (stereo partly drawn) [Example 743, {4-[2-((R)-1-Hydroxy-ethyl)-6H-1,3,5,6-tetraaza-as-indacen-1-yl]cyclohexyl}acetonitrile], the inhibition constant (Ki) at JAK1 stood at 0.00059 µM; at JAK2 it was 0.00368 µM; on JAK3, 0.0141 µM; at TYK2 it was 0.00123 µM.

In the case of `C[C@@H](O)c1nc2cnc3[nH]ccc3c2n1[C@H]1CC[C@H](N(C)CCC#N)CC1` [Example 616, Trans 3-({4-[2-((R)-1-hydroxy-ethyl)-6H-1,2,3,5,6-tetraaza-as-indacen-1-yl]-cyclohexyl}-methyl-amino)-propionitrile], the Ki on JAK1 came out at 0.00449 µM; at JAK2, 0.02 µM; on JAK3, 0.0843 µM; at TYK2, 0.0121 µM.

With `COCC(=O)N1CCC(n2cnc3cnc4[nH]ccc4c32)CC1` [Example 192, 2-Methoxy-1-[4-(6H-1,2,3,5,6-tetraaza-as-indacen-1-yl)-piperidin-1-yl]-ethanone], the Ki on JAK1 is 0.0245 µM; on JAK2, 0.0513 µM; at JAK3, 0.401 µM; at TYK2, 0.388 µM.

On to `O=S(=O)(C1CC1)N1CCC(n2cnc3cnc4[nH]ccc4c32)CC1` [Example 69, 1-(1-Cyclopropanesulfonyl-piperidin-4-yl]-1,6-dihydro-1,3,5,6-tetraaza-as-indacene], for which the Ki worked out at 0.00344 µM on JAK1, 0.00441 µM at JAK2, 0.0933 µM at JAK3 and 0.0266 µM at TYK2.

Consider `C[C@@H](O)c1nc2cnc3[nH]ccc3c2n1C1CCN(C2(CC#N)COC2)CC1` [Example 861, (3-{4-[2-((R)-1-Hydroxy-ethyl)-6H-1,3,5,6-tetraaza-as-indacen-1-yl]-piperidin-1-yl}-oxetan-3-yl)-acetonitrile], for which the Ki worked out at 0.0394 µM on JAK1, 0.205 µM at JAK2, 1.67 µM at JAK3 and 0.602 µM on TYK2.

Regarding `CC(O)c1nc2cnc3[nH]ccc3c2n1C1CC2CCC1O2` (single isomer, unassigned) [Example 937, Endo-1-[1-(7-Oxa-bicyclo[2.2.1]hept-2-yl)-1,6-dihydro-1,3,5,6-tetraaza-as-indacen-2-yl]-ethanol], the inhibition constant Ki was 0.0805 µM at JAK1, 0.174 µM at JAK2, 0.0733 µM at JAK3 and 0.144 µM on TYK2.

Consider `CC(C)c1nc2cnc3[nH]ccc3c2n1C1CCN(Cc2ccccc2)CC1` [Example 223, 1-(1-Benzyl-piperidin-4-yl)-2-isopropyl-1,6-dihydro-1,3,5,6-tetraaza-as-indacene], for which the Ki on JAK1 is 0.00374 µM; on JAK2 it was 0.0244 µM; on JAK3, 0.00811 µM; at TYK2, 1.47 µM.

As for `C[C@@H](N)c1nc2cnc3[nH]ccc3c2n1C1CCCOC1` (single isomer, unassigned) [Example 669, 1-[1-(Tetrahydro-pyran-3-yl)-1,6-dihydro-1,2,3,5,6-tetraaza-as-indacen-2-yl]-ethylamine], the Ki was determined as 0.137 µM at JAK1, 0.913 µM on JAK2, 0.823 µM on JAK3 and 0.681 µM on TYK2.

Consider `CC(C)OCc1nc2cnc3[nH]ccc3c2n1C1CCN(CCC#N)CC1` [Example 842, 3-[4-(2-Isopropoxymethyl-6H-1,3,5,6-tetraaza-as-indacen-1-yl)-piperidin-1-yl]-propionitrile], for which the Ki on JAK1 came to 0.081 µM; at JAK2, 0.171 µM; on JAK3, 0.236 µM; on TYK2, 0.905 µM.

As for `N#CCCN1CCC(n2c(C#N)nc3cnc4[nH]ccc4c32)CC1` [Example 293, 1-[1-(2-Cyano-ethyl)-piperidin-4-yl]-1,6-dihydro-1,3,5,6-tetraaza-as-indacene-2-carbonitrile], the inhibition constant Ki at JAK1 came to 0.00121 µM; on JAK2, 0.00131 µM; on JAK3, 0.014 µM; at TYK2, 0.0119 µM.

For the molecule `CC(O)c1nc2cnc3[nH]ccc3c2n1C1CC2CCC1O2` (single isomer, unassigned) [Example 907, (o)-1-[1-(7-Oxa-bicyclo[2.2.1]hept-2-yl)-1,6-dihydro-1,3,5,6-tetraaza-as-indacen-2-yl]-ethanol], the Ki was 0.024 µM on JAK1, 0.142 µM at JAK2, 0.195 µM on JAK3 and 0.0769 µM on TYK2.

Turning to `CS(=O)(=O)N1CCC(n2c(CC3CCCC3)nc3cnc4[nH]ccc4c32)CC1` [Example 115, 2-Cyclopentylmethyl-1-(1-methanesulfonyl-piperidin-4-yl)-1,6-dihydro-1,2,3,5,6-tetraaza-as-indacene], the Ki on JAK1 came to 0.32 µM; on JAK2, 0.744 µM; on JAK3, 0.547 µM; at TYK2 it was 0.153 µM.

On to `CC1(n2cnc3cnc4[nH]ccc4c32)CCN(Cc2cncs2)CC1` [Example 755, 1-(4-Methyl-1-thiazol-5-ylmethyl-piperidin-4-yl)-1,6-dihydro-1,3,5,6-tetraaza-as-indacene], for which the Ki on JAK1 was 0.00715 µM; at JAK2, 0.0337 µM; at JAK3, 0.0931 µM; at TYK2, 0.211 µM.

As for `CC(c1ccccc1)N1CCC(n2cnc3cnc4[nH]ccc4c32)CC1` (stereo not drawn) [Example 51, 1-[1-(1-Phenyl-ethyl)-piperidin-4-yl]-1,6-dihydro-1,3,5,6-tetraaza-as-indacene], the Ki at JAK1 stood at 0.00768 µM; at JAK2 it was 0.00669 µM; on JAK3, 0.137 µM; at TYK2, 0.0766 µM.

In the case of `Cc1nc2cnc3[nH]ccc3c2n1[C@H]1CCC[C@](C)(O)C1` [Example 886, (1S,3S)-1-Methyl-3-(2-methyl-6H-1,3,5,6-tetraaza-as-indacen-1-yl)-cyclohexanol], the inhibition constant (Ki) on JAK1 came out at 0.0103 µM; at JAK2 it was 0.0167 µM; on JAK3 it was 0.0417 µM; at TYK2 it was 0.0528 µM.

For `CCOC(=O)N1CCC(n2c([C@@H](C)O)nc3cnc4[nH]ccc4c32)CC1` [Example 927], the Ki is 0.176 µM on JAK1, 0.613 µM at JAK2, 0.383 µM on JAK3 and 0.711 µM on TYK2.

Consider `CC(C)CC(=O)NCCc1nc2cnc3[nH]ccc3c2n1C1CCN(CCC#N)CC1` [Example 376, N-(2-{1-[1-(2-Cyano-ethyl)-piperidin-4-yl]-1,6-dihydro-1,3,5,6-tetraaza-as-indacen-2-yl}-ethyl)-3-methyl-butyramide], for which the inhibition constant (Ki) at JAK1 amounted to 0.00415 µM; on JAK2, 0.0386 µM; on JAK3, 0.0619 µM; at TYK2, 0.188 µM.

Regarding `CC1(n2cnc3cnc4[nH]ccc4c32)CCN(S(=O)(=O)c2cccnc2)CC1` [Example 753, 1-[4-Methyl-1-(pyridine-3-sulfonyl)-piperidin-4-yl]-1,6-dihydro-1,3,5,6-tetraaza-as-indacene], the inhibition constant Ki at JAK1 was 0.0184 µM; at JAK2, 0.0761 µM; on JAK3 it was 0.296 µM; at TYK2 it was 0.289 µM.

Turning to `CC(C)(C)OC(=O)N1CC(n2cnc3cnc4[nH]ccc4c32)C1` [Example 3, 3-(6H-1,2,3,5,6-Tetraaza-as-indacen-1-yl)-azetidine-1-carboxylic acid tert-butyl ester], the Ki is 0.348 µM on JAK1, 0.191 µM at JAK2, 0.905 µM on JAK3 and 1.64 µM at TYK2.

As to `CCC(C)S(=O)(=O)NCCc1nc2cnc3[nH]ccc3c2n1C1CCN(CCC#N)CC1` (racemic) [Example 369, Butane-2-sulfonic acid (2-{1-[1-(2-cyano-ethyl)-piperidin-4-yl]-1,6-dihydro-1,3,5,6-tetraaza-as-indacen-2-yl}-ethyl)-amide], the Ki was 0.00274 µM on JAK1, 0.0144 µM on JAK2, 0.0255 µM at JAK3 and 0.0718 µM on TYK2.

As for `N#CCCN1CCC(n2c(CC3CCOCC3)nc3cnc4[nH]ccc4c32)CC1` [Example 812, 3-{4-[2-(Tetrahydro-pyran-4-ylmethyl)-6H-1,3,5,6-tetraaza-as-indacen-1-yl]-piperidin-1-yl}-propionitrile], the Ki on JAK1 was 0.0378 µM; on JAK2 it was 0.213 µM; at JAK3, 0.168 µM; on TYK2, 0.316 µM.

With `N#Cc1ccc(N2CCC(n3cnc4cnc5[nH]ccc5c43)CC2)nc1` [Example 95, 4-(6H-1,3,5,6-Tetraaza-as-indacen-1-yl)-3,4,5,6-tetrahydro-2H-[1,2′]bipyridinyl-5′-carbonitrile], the Ki on JAK1 is 0.0122 µM; at JAK2, 0.0354 µM; at JAK3, 0.161 µM; at TYK2, 0.102 µM.

Regarding `OCCc1nc2cnc3[nH]ccc3c2n1[C@@H]1CCCN(Cc2ccccc2)C1` [Example 15, 2-[1-((R)-1-Benzyl-piperidin-3-yl)-1,6-dihydro-1,2,3,5,6-tetraaza-as-indacen-2-yl]ethanol], the Ki on JAK1 is 0.102 µM; at JAK2, 0.0865 µM; on JAK3, 0.769 µM; at TYK2 it was 0.443 µM.

`CC(C)(C)OC(=O)NC1CC(n2cnc3cnc4[nH]ccc4c32)C1` (stereo not drawn) [Example 317, [3-(6H-1,3,5,6-Tetraaza-as-indacen-1-yl)-cyclobutyl]-carbamic acid tert-butyl ester]: the Ki at JAK1 was 0.0029 µM; at JAK2 it was 0.00578 µM; at JAK3 it was 0.0374 µM; on TYK2 it was 0.0946 µM.

As a reminder, the Ki is the equilibrium dissociation constant of an inhibitor or competing ligand from its target.

The record behind these values is patent publication US8461328B2, “Tricyclic heterocyclic compounds, compositions and methods of use thereof” (Genentech, Inc., priority 2010, dated 2013).
